What was measured:
[1] = molecular target: purified human autoBACE-2 (Homo sapiens (Human), UniProt Q9Y5Z0); assay: BACE-2 Assay (BACE-HTRF assay); format: biochemical; conditions: Ki calculated from IC50 using the Cheng-Prusoff equation; QSY7-EISEVNLDAEFC-Eu-amide substrate, pH 5.0; read-out: BACE2 Ki
Method: Inhibitor IC50s at purified human autoBACE-2 are determined in a time-resolved endpoint proteolysis assay that measures hydrolysis of the QSY7-EISEVNLDAEFC-Eu-amide FRET peptide substrate (BACE-HTRF assay). BACE-mediated hydrolysis of this peptide results in an increase in relative fluorescence (RFU) at 620 nm after excitation with 320 nm light. Inhibitor compounds, prepared at 3× the desired final concentration in 1×BACE assay buffer (20 mM sodium acetate pH 5.0, 10% glycerol, 0.1% Brij-35) supplemented with 7.5% DMSO are pre-incubated with an equal volume of autoBACE-2 enzyme diluted in 1×BACE assay buffer (final enzyme concentration 1 nM) in black 384-well NUNC plates for 30 minutes at 30° C. The assay is initiated by addition of an equal volume of the QSY7-EISEVNLDAEFC-Eu-amide substrate (200 nM final concentration, Km=8 μM […] for autoBACE-2) prepared in 1×BACE assay buffer supplemented with 7.5% DMSO and incubated for 90 minutes at 30° C. DMSO is present at 5% final concentration in the assay. Following laser excitation of sample wells at 320 nm, the fluorescence signal at 620 nm is collected for 400 ms following a 50 μs delay on a RUBYstar HTRF plate reader (BMG Labtechnologies). Raw RFU data is normalized to maximum (1.0 nM BACE/DMSO) and minimum (no enzyme/DMSO) RFU values. IC50s are determined by nonlinear regression analysis (sigmoidal dose response, variable slope) of percent inhibition data with minimum and maximum values set to 0 and 100 percent respectively. Similar IC50s are obtained when using raw RFU data. The Ki values are calculated from the IC50 using the Cheng-Prusoff equation.

[2] = molecular target: soluble human BACE1 catalytic domain (Homo sapiens (Human), UniProt P56817); assay: BACE1 HTRF FRET Assay; format: biochemical; conditions: Ki calculated from IC50 using the Cheng-Prusoff equation; QSY7-APPswe-Eu substrate, pH 5.0
From the text: Reagents: Na^+-Acetate pH 5.0; 1% Brij-35; Glycerol; Dimethyl Sulfoxide (DMSO);
A homogeneous time-resolved FRET assay can be used to determine IC50 values for inhibitors of the soluble human BACE1 catalytic domain. This assay monitors the increase of 620 nm fluorescence that resulted from BACE1 cleavage of an APPswedish APP^swe mutant peptide FRET substrate (QSY7-[…]-Europium-amide). This substrate contains an N-terminal QSY7 moiety that serves as a quencher of the C-terminal Europium fluorophore (620 nm Em). […] Inhibition of BACE1 cleavage of the QSY7-APP^swe-Eu substrate by inhibitors is manifested as a suppression of 620 nm fluorescence.
Reactions are initiated by addition of 10 μl of 600 nM QSY7-APP^swe-Eu substrate (200 nM final) to give a final reaction volume of 30 μl in a 384 well Nunc HTRF plate. The reactions are incubated at 30° C. for 1.5 hours. The 620 nm fluorescence is then read on a Rubystar HTRF plate reader (BMG Labtechnologies) using a 50 millisecond delay followed by a 400 millisecond acquisition time window. Inhibitor IC50 values are derived from non-linear regression analysis of concentration response curves.

Sequence of purified human autoBACE-2 (Q9Y5Z0 63-473): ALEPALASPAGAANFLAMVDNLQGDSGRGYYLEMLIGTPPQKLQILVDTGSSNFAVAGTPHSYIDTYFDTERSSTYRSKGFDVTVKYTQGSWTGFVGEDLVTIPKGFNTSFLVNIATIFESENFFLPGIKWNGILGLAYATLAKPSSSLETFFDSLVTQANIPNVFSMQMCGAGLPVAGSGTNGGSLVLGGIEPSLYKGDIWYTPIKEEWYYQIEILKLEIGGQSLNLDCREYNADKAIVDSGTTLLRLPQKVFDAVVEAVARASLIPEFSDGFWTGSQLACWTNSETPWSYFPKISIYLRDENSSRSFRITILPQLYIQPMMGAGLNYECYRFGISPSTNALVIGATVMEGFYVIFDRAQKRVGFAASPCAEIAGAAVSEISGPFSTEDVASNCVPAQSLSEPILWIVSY
Sequence of soluble human BACE1 catalytic domain (P56817 75-416): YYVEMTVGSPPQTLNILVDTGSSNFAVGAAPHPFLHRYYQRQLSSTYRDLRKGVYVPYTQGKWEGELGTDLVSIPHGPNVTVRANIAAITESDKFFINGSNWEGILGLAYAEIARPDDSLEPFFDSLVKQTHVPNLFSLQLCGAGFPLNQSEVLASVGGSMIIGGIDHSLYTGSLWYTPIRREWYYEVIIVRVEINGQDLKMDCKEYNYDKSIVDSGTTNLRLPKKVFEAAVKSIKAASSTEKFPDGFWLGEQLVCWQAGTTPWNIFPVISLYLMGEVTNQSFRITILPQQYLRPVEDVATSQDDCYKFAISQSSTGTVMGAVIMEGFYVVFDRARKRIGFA

| Structure (SMILES) | Ki [1] [nM] | Ki [2] [nM] |
| --- | --- | --- |
| COc1ccc(C(=O)Nc2ccc(F)c([C@]3(C)CS(=O)(=O)C4(CN(C)C4)C(=N)N3)c2)nc1 [Example 3, N-{4-fluoro-3-[(7R)-9-imino-2,7-dimethyl-5,5-dioxido-5-thia-2,8-diazaspiro[3.5]non-7-yl]phenyl}-5-methoxypyridine-2-carboxamide] | 1.6 | 6.3 |
| CN1CCC2(CC1)C(=N)N[C@](C)(c1cc(NC(=O)c3ccc(OCF)cn3)ccc1F)CS2(=O)=O [Example 32, N-{4-fluoro-3-[(3R)-5-imino-3,9-dimethyl-1,1-dioxido-1-thia-4,9-diazaspiro[5.5]undec-3-yl]phenyl}-5-(fluoromethoxy) pyridine-2-carboxamide] | 11 | 14 |
| COc1ccc(C(=O)Nc2ccc(F)c([C@]3(C)CS(=O)(=O)C4(CN(Cc5ccccc5)C4)C(=N)N3)c2)nc1 [Example 40, (R)—N-(3-(2-benzyl-9-imino-7-methyl-5,5-dioxido-5-thia-2,8-diazaspiro[3.5]nonan-7-yl)-4-fluorophenyl)-5-methoxypicolinamide] | 0.6 | 7.7 |
| COc1ccc(C(=O)Nc2ccc(F)c([C@]3(C)CS(=O)(=O)C4(CNC4)C(=N)N3)c2)nc1 [Example 36d, (R)—N-(4-fluoro-3-(9-imino-7-methyl-5,5-dioxido-5-thia-2,8-diazaspiro[3.5]nonan-7-yl)phenyl)-5-methoxypicolinamide] | 16 | 22 |
| COc1ccc(C(=O)Nc2ccc(F)c([C@]3(C)CS(=O)(=O)C4(CN(C(C)=O)C4)C(=N)N3)c2)nc1 [Example 37, (R)—N-(3-(2-acetyl-9-imino-7-methyl-5,5-dioxido-5-thia-2,8-diazaspiro[3.5]nonan-7-yl)-4-fluorophenyl)-5-methoxypicolinamide] | 1.1 | 1.6 |
| CN1CC2(C1)C(=N)N[C@](C)(c1cc(NC(=O)c3ncc(C#N)cc3C3CC3)ccc1F)CS2(=O)=O [Example 12a, 5-cyano-3-cyclopropyl-N-{4-fluoro-3-[(7R)-9-imino-2,7-dimethyl-5,5-dioxido-5-thia-2,8-diazaspiro [3.5]non-7-yl]phenyl}pyridine-2-carboxamide] | 0.8 | 1.3 |
| Cc1cc(C#N)cnc1C(=O)Nc1ccc(F)c([C@]2(C)CS(=O)(=O)C3(CN(C)C3)C(=N)N2)c1 [Example 11, 5-cyano-N-{4-fluoro-3-[(7R)-9-imino-2,7-dimethyl-5,5-dioxido-5-thia-2,8-diazaspiro[3.5]non-7-yl]phenyl}-3-methylpyridine-2-carboxamide] | 1 | 1.3 |
| CC#CCOc1ccc(C(=O)Nc2ccc(F)c([C@]3(C)CS(=O)(=O)C4(CN(C)C4)C(=N)N3)c2)nc1 [Example 12, 5-(but-2-yn-1-yloxy)-N-{4-fluoro-3-[(7R)-9-imino-2,7-dimethyl-5,5-dioxido-5-thia-2,8-diazaspiro[3.5]non-7-yl]phenyl}pyridine-2-carboxamide] | 30 | 2.3 |
| CN1CC2(C1)C(=N)N[C@](C)(c1cc(NC(=O)c3ccc(OC(F)(F)F)cn3)ccc1F)CS2(=O)=O [Example 6, N-{4-fluoro-3-[(7R)-9-imino-2,7-dimethyl-5,5-dioxido-5-thia-2,8-diazaspiro[3.5]non-7-yl]phenyl}-5-(trifluoromethoxy) pyridine-2-carboxamide] | 10.3 | 3.3 |
| CN1CC2(C1)C(=N)N[C@](C)(c1cc(NC(=O)c3ccc(C#N)cn3)ccc1F)CS2(=O)=O [Example 1, (R)-5-cyano-N-(4-fluoro-3-(9-imino-2,7-dimethyl-5,5-dioxido-5-thia-2,8-diazaspiro[3.5]nonan-7-yl)phenyl)picolinamide] | 1.4 | 1.7 |
| COc1cnc(C(=O)Nc2ccc(F)c([C@]3(C)CS(=O)(=O)C4(CN(C)C4)C(=N)N3)c2)c(C)c1 [Example 9, N-{4-fluoro-3-[(7R)-9-imino-2,7-dimethyl-5,5-dioxido-5-thia-2,8-diazaspiro[3.5]non-7-yl]phenyl}-5-methoxy-3-methylpyridine-2-carboxamide] | 0.9 | 6.3 |
| COc1ccc(C(=O)Nc2ccc(F)c([C@]3(C)CS(=O)(=O)C4(CN(S(C)(=O)=O)C4)C(=N)N3)c2)nc1 [Example 38, (R)—N-(4-fluoro-3-(9-imino-7-methyl-2-(methylsulfonyl)-5,5-dioxido-5-thia-2,8-diazaspiro[3.5]nonan-7-yl)phenyl)-5-methoxypicolinamide] | 2.3 | 6.5 |
| CNC(=O)N1CC2(C1)C(=N)N[C@](C)(c1cc(NC(=O)c3ccc(OC)cn3)ccc1F)CS2(=O)=O [Example 39, (R)-7-(2-fluoro-5-(5-methoxypicolinamido)phenyl)-9-imino-N,7-dimethyl-5-thia-2,8-diazaspiro[3.5]nonane-2-carboxamide 5,5-dioxide] | 1.7 | 7.3 |
| Cc1cc(C#N)cnc1C(=O)Nc1ccc(F)c([C@]2(C)CS(=O)(=O)C3(CNC3)C(=N)N2)c1 [Example 36e, 5-cyano-N-{4-fluoro-3-[(7R)-9-imino-7-methyl-5,5-dioxido-5-thia-2,8-diazaspiro[3.5]non-7-yl]phenyl}-3-methylpyridine-2-carboxamide] | 1.8 | 4.1 |
| CN1CCC2(CC1)C(=N)N[C@](C)(c1cc(NC(=O)c3ccc(F)cn3)ccc1F)CS2(=O)=O [Example 26, 5-fluoro-N-{4-fluoro-3-[(3R)-5-imino-3,9-dimethyl-1,1-dioxido-1-thia-4,9-diazaspiro[5.5]undec-3-yl]phenyl}pyridine-2-carboxamide] | 6.4 | 37 |

From patent US9453034B2, “C2-azaspiro iminothiazine dioxides as BACE inhibitors, compositions, and their use” (Merck Sharp & Dohme Corp., priority 2013, dated 2016)
